Values of other authors, collected in patent US20260275282A1, “CELLS BEING HIGHLY ENRICHED IN SASP FACTORS, AND COMPOSITION COMPRISING SAID CELLS” (EVOMEDIS GMBH, priority 2022, published 2026).
pIC50: −log10 of the molar value. Like-named read-outs stand apart in the source and are kept apart here. Peptide text beside a SMILES is read from it.

Columns and labels:
[1] = system: microtubules assembly; conditions: half of the maximal concentration necessary to inhibit the microtubules assembly
[2] = system: protein secretion (SASP factor secretion)
[3] = system: proteasome; conditions: Inhibitor of proteasome; read-out: Concentration (IC50)
[4] = system: PI3K-mTOR; conditions: Dual inhibitor of PI3K-mTOR; read-out: Concentration (IC50)
[5] = system: kinesin; conditions: Kinesin inhibitors: Group V; read-out: Concentration (IC50)
[6] = system: autophagy; conditions: BH3 domain mimetics; read-out: Concentration (IC50)
[7] = concentration range that results in significant reduction, preferably inhibition, of SASP factor secretion

CCC1=C[C@@H]2CN(C1)Cc1c([nH]c3ccccc13)[C@@](C(=O)OC)(c1cc3c(cc1OC)N(C)[C@H]1[C@@](O)(C(=O)OC)[C@H](OC(C)=O)[C@]4(CC)C=CCN5CC[C@]31[C@@H]54)C2 [Vinorelbine]
pIC50 [1]: 9.10

C1CCC(C(CC2CCCCN2)C2CCCCC2)CC1 (centres unmarked) [Perhexiline]
Concentration [2, 7]: 10 µM

Cn1cnc(N)c2ncnc1-2 [3-Methyladenine]
Concentration [2, 7]: 5000 µM

CCCCc1ccc2[nH]c(NC(=O)OC)nc2c1 [Parbendazole]
Concentration [2, 7]: 10 µM

C[C@@H]1CN2CCC[C@H]3CCCCCC[C@H]4CCN5CCC[C@@](O)(CCCCCC[C@@H]1O[C@H]32)[C@H]5O4 [Xestospongin B]
Concentration [2, 7]: 0.08 to 10 µM

COc1cc2c(c(OC)c1OC)-c1ccc(OC)c(=O)cc1[C@@H](NC(C)=O)CC2 [Colchicine]
Concentration [2, 7]: 2 to 5 µM

CCCC[C@@H](C=O)NC(=O)[C@H](CC(C)C)NC(=O)OCc1ccccc1 [Calpeptin]
Concentration ([2]; 1 mM extracellular Ca2 - calcium dependent): 80 μM (1 mM

CN[C@H]1CC[C@@H](c2ccc(Cl)c(Cl)c2)c2ccccc21 [Sertraline]
Concentration [2, 7]: 10 µM

Fc1ccc([C@@H]2CCNC[C@H]2COc2ccc3c(c2)OCO3)cc1 [Paroxetine]
Concentration [2, 7]: 10 to 20 µM

CNC(=O)c1cc(Oc2ccc(NC(=O)Nc3ccc(Cl)c(C(F)(F)F)c3)cc2)ccn1 [Sorafenib]
Concentration [2, 7]: 5 to 10 µM

CSCC[C@@H](C=O)NC(=O)[C@H](CC(C)C)NC(=O)[C@H](CC(C)C)NC(C)=O [Calpain inhibitor II, N-acetyl-leucyl-leucyl-methioninal] (Ac-Leu-Leu-Met-aldehyde)
Concentration [2, 7]: 10 µM

Methyl-β-cyclodextrin
Concentration in combination with Vinblastine ([2]; + 2-5 nM Vinblastine, actin depolymerizer with microtubule targeting-agent): 1 mM + 2-5 nM

CC[C@]1(O)C[C@@H]2CN(CCc3c([nH]c4ccccc34)[C@@](C(=O)OC)(c3cc4c(cc3OC)N(C)[C@H]3[C@@](O)(C(N)=O)[C@H](O)[C@]5(CC)C=CCN6CC[C@]43[C@@H]65)C2)C1 [Vindesine]
pIC50 [1]: 9.10

CN(C)C(=N)N=C(N)N [Metformin]
Concentration [2, 7]: 5 µM

CNCCC(Oc1ccc(C(F)(F)F)cc1)c1ccccc1 (centres unmarked) [Fluoxetine]
Concentration [2, 7]: 30 to 100 µM

Oc1ccc(C=Cc2cc(O)cc(O)c2)cc1 [Resveratrol]
Concentration [2, 7]: 12.5 to 50 µM

CC(=O)O[C@H]1C(=O)[C@@]2(C)[C@H]([C@H](OC(=O)c3ccccc3)[C@]3(O)C[C@H](OC(=O)[C@H](O)[C@@H](NC(=O)c4ccccc4)c4ccccc4)C(C)=C1C3(C)C)[C@]1(OC(C)=O)CO[C@@H]1C[C@@H]2O [Paclitaxel (Taxol), Paclitaxel]
pIC50 [1]: 8.10

Cyclclosporine A
Concentration [2, 7]: 10 to 40 µM

CC[C@]1(O)C[C@@H]2CN(CCc3c([nH]c4ccccc34)[C@@](C(=O)OC)(c3cc4c(cc3OC)N(C)[C@H]3[C@@](O)(C(=O)OC)[C@H](OC(C)=O)[C@]5(CC)C=CCN6CC[C@]43[C@@H]65)C2)C1 [Vinblastine]
pIC50 [1]: 9.10

C[C@@H](N)[C@H]1CC[C@H](C(=O)Nc2ccncc2)CC1 [Y27632]
Concentration [2, 7]: 5 µM

COC(=O)Nc1nc2ccc(C(=O)c3cccs3)cc2[nH]1 [Nocodazole]
pIC50 [1]: 9.10

CC(=O)N[C@@H](CC(C)C)C(=O)N[C@@H](CC(C)C)C(=O)N[C@H](C=O)CCCNC(=N)N [Leupeptin]
Concentration [2, 7]: 0.08 to 0.096 µM

Oc1cccc(-c2nc(N3CCOCC3)c3oc4ncccc4c3n2)c1 [PI-103]
pIC50 [4]: 6.82 to 8.10

O=CC[C@@H](O)[C@H](O)[C@H](O)CO [2-Deoxyglucose]
Concentration [2, 7]: 50000 µM

Cc1ccc(C(=O)N(CCCN)[C@@H](c2nc3cc(Cl)ccc3c(=O)n2Cc2ccccc2)C(C)C)cc1 [Ispinesib (SB715992), Ispinesib]
pIC50 [5]: 4.52 to 5.00

NC(=O)N1CCC(CC(=O)N2CCC([C@H]3c4ncc(Br)cc4CCc4cc(Cl)cc(Br)c43)CC2)CC1 [Lonafarnib]
Concentration [2, 7]: 5 µM

CC(NCCC(c1ccccc1)c1ccccc1)c1ccccc1 (centres unmarked) [Fendiline]
Concentration [2, 7]: 1 to 100 µM

CC[C@]12C=CCN3CC[C@@]4(c5cc([C@@]6(C(=O)OC)C[C@@H]7C[C@@H](C(C)(F)F)CN(Cc8c6[nH]c6ccccc86)C7)c(OC)cc5N(C)[C@H]4[C@@](O)(C(=O)OC)[C@@H]1OC(C)=O)[C@@H]32 [Vinflunine]
pIC50 [1]: 9.10

COc1ccc(CCN2CCC(Nc3nc4ccccc4n3Cc3ccc(F)cc3)CC2)cc1 [Astemizole]
Concentration [2, 7]: 20 to 40 µM

O=C(CCCN1CCC2(CC1)C(=O)NCN2c1ccccc1)c1ccc(F)cc1 [Spiperone]
Concentration [2, 7]: 10 to 20 µM

CC[C@]1(O)C[C@H]2CN(CCc3c([nH]c4ccccc34)[C@@](C(=O)OC)(c3cc4c(cc3OC)N(C=O)[C@H]3[C@@](O)(C(=O)OC)[C@H](OC(C)=O)[C@]5(CC)C=CCN6CC[C@]43[C@@H]65)C2)C1 [Vincristine]
pIC50 [1]: 9.10

CN(C)CCCN1c2ccccc2CCc2ccccc21 [Imipramine]
Concentration [2, 7]: 1 µM

CCCC[C@@H](C)/C=C(C)/C=C(\C)C(=O)NC1=C[C@@](O)(/C=C/C=C/C=C/C(=O)NC2=C(O)CCC2=O)[C@@H]2O[C@@H]2C1=O [Manumycin A]
Concentration [2, 7]: 1 µM

CC[C@@]1([C@@H]2O[C@@H]([C@H]3O[C@@](O)(CO)[C@H](C)C[C@@H]3C)C[C@@H]2C)CC[C@H]([C@]2(C)CC[C@]3(C[C@H](O)[C@@H](C)[C@@H]([C@@H](C)[C@@H](OC)[C@H](C)C(=O)O)O3)O2)O1 [Monensin]
Concentration [2, 7]: 10 µM

CC(Oc1ccc(O)cc1)(P(=O)(O)O)P(=O)(O)O [L-690,330]
Concentration [2, 7]: 100 µM

C/C1=C/C[C@@H](/C(C)=C/c2csc(C)n2)OC(=O)C[C@H](O)C(C)(C)C(=O)[C@H](C)[C@@H](O)[C@@H](C)CCC1 [Desoxyepothilone B]
pIC50 [1]: 7.89

CN(C)CC[C@H](CSc1ccccc1)Nc1ccc(S(=O)(=O)NC(=O)c2ccc(N3CCN(Cc4ccccc4-c4ccc(Cl)cc4)CC3)cc2)cc1[N+](=O)[O-] [ABT-737]
pIC50 [6]: 5.00 to 5.30
